Data as given in patent US10421761B2, “Compounds for kinase modulation, and indications therefor” (Plexxikon Inc., priority 2013, dated 2019).
Like-named read-outs stand apart in the source and are kept apart here.

Assays:
B9 (HRAS Q61L) cell line = assay: B9 P-ERK cell activation assay (AlphaScreen); assay type: cell-based, mouse; conditions: Mus musculus, P-ERK cell activation, B9, read-out: Cell activity (EC50 μM) B9_pERK
Outline: (§1)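 Phospho-ERK1/2 (Thr202/Tyr204) in lysates quantified via AlphaScreen bead proximity, after one-hour, 37° C. exposure of cells to eight compound concentrations. Lines: IPC-298 human melanoma with activated NRAS; B9 mouse squamous carcinoma with activated HRAS.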

[1] = test system: A375 (BRAF V600E) cell line; assay: A375 P-ERK inhibition assay (AlphaScreen); assay type: cell-based, human; conditions: Homo sapiens, A-375; A375_P-ERK
Outline: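 Phospho-ERK1/2 (Thr202/Tyr204) detected in lysates by AlphaScreen proximity signal, pairing a total-ERK antibody with a phospho-specific antibody. Before lysis, A375 cells received compound as an 8-point titration for one hour at 37° C.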

[2] = test system: IPC-298 (NRAS Q61L) cell line; assay: IPC-298 P-ERK cell activation assay (AlphaScreen); assay type: cell-based, human; conditions: Homo sapiens, P-ERK cell activation, IPC-298, read-out: Cell activity (EC50 μM) IPC-298_P-ERK
Outline: as §1

BRAF V600E = molecular target: T1, BRAF V600E (Homo sapiens, UniProt P15056, V600E); assay: BRAF V600E biochemical kinase activity assay (AlphaScreen, biotin-MEK1 substrate); conditions: BRAF V600E biochemical inhibitory activity
T1 construct: purchased Upstate Biotechnology
T1 sequence (P15056 whole entry V600E): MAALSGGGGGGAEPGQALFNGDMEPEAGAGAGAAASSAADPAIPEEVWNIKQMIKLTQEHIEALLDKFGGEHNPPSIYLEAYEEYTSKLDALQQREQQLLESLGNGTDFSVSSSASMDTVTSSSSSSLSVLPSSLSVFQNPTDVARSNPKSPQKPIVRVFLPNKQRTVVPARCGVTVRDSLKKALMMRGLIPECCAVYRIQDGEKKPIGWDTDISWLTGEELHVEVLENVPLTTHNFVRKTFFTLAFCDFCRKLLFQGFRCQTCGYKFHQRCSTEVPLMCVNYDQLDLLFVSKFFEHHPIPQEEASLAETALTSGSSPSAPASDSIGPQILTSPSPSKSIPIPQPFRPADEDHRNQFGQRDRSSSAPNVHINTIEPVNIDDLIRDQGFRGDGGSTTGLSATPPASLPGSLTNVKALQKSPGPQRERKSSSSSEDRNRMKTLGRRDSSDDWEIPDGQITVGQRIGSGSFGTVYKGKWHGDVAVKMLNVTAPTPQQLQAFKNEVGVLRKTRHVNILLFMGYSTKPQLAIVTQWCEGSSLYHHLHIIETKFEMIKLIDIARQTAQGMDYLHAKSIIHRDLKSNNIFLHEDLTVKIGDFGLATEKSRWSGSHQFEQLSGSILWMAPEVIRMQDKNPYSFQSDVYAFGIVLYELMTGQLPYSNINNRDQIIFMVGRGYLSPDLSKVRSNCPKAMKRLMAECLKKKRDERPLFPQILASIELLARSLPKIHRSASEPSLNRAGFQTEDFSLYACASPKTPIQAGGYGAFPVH

SMILES	EC50 (B9 (HRAS Q61L) cell line; numeric bounds) [µM]	IC50 [1] [µM]	EC50 ([2]; numeric bounds) [µM]	IC50 (BRAF V600E) [µM]	EC50 (B9 (HRAS Q61L) cell line; class symbols) [µM]	EC50 ([2]; class symbols) [µM]
CC(C)(C)c1nc(-c2cccc(NS(=O)(=O)N3CCCC3)c2F)c(-c2ncnc3[nH]cnc23)s1 [P-2125, N-[3-[2-tert-butyl-5-(9H-purin-6-yl)thiazol-4-yl]-2-fluoro-phenyl]pyrrolidine-1-sulfonamide]	> 10	0.0001 to 1	> 1	0.0001 to 1		
CC(C)(C)c1nc(-c2cccc(NS(=O)(=O)N3CCCC3)c2F)c(Br)s1 [P-2127, N-[3-(5-bromo-2-tert-butyl-thiazol-4-yl)-2-fluoro-phenyl]pyrrolidine-1-sulfonamide]	> 10	> 10	> 10	0.0001 to 1		
CC(C)(C)c1nc(-c2cccc(NS(=O)(=O)N3CC[C@@H](F)C3)c2F)c(-c2ccnc(N)n2)s1 [P-2129, (3R)-N-[3-[5-(2-aminopyrimidin-4-yl)-2-tert-butyl-thiazol-4-yl]-2-fluoro-phenyl]-3-fluoro-pyrrolidine-1-sulfonamide]		0.0001 to 1		0.0001 to 1	0.0001 to 1	0.0001 to 1
CC(C)(C)c1nc(-c2cccc(NS(=O)(=O)N3CC[C@H](F)C3)c2F)c(-c2ccnc(N)n2)s1 [P-2130, (3S)-N-[3-[5-(2-aminopyrimidin-4-yl)-2-tert-butyl-thiazol-4-yl]-2-fluoro-phenyl]-3-fluoro-pyrrolidine-1-sulfonamide]		0.0001 to 1		0.0001 to 1	0.0001 to 1	0.0001 to 1
COC(=O)N[C@@H](C)CNc1nccc(-c2sc(-c3ccccc3)nc2-c2cccc(NS(=O)(=O)N3CC[C@H](F)C3)c2F)n1 [P-2153, methyl N-[(1S)-2-[[4-[4-[2-fluoro-3-[[(3S)-3-fluoropyrrolidin-1-yl]sulfonylamino]phenyl]-2-phenyl-thiazol-5-yl]pyrimidin-2-yl]amino]-1-methyl-ethyl]carbamate]		0.0001 to 1		0.0001 to 1	0.0001 to 1	0.0001 to 1
COC(=O)N[C@@H](C)CNc1nccc(-c2nn(C(C)C)cc2-c2cc(Cl)cc(NS(=O)(=O)N3CC[C@@H](F)C3)c2F)n1 [P-2161, methyl N-[(1S)-2-[[4-[4-[5-chloro-2-fluoro-3-[[(3R)-3-fluoropyrrolidin-1-yl]sulfonylamino]phenyl]-1-isopropyl-pyrazol-3-yl]pyrimidin-2-yl]amino]-1-methyl-ethyl]carbamate]		0.0001 to 1	> 10	0.0001 to 1	0.0001 to 1	
COC(=O)N[C@@H](C)CNc1nccc(-c2nn(C(C)C)cc2-c2cc(Cl)cc(NS(=O)(=O)N3CCC3)c2F)n1 [P-2163, methyl N-[(1S)-2-[[4-[4-[3-(azetidin-1-ylsulfonylamino)-5-chloro-2-fluoro-phenyl]-1-isopropyl-pyrazol-3-yl]pyrimidin-2-yl]amino]-1-methyl-ethyl]carbamate]	> 10	1 to 10	> 10	1 to 10		
CCN(CC)S(=O)(=O)Nc1cc(Cl)cc(-c2cn(C(C)C)nc2-c2ccnc(NC[C@H](C)NC(=O)OC)n2)c1F [P-2165, methyl N-[(1S)-2-[[4-[4-[5-chloro-3-(diethylsulfamoylamino)-2-fluoro-phenyl]-1-isopropyl-pyrazol-3-yl]pyrimidin-2-yl]amino]-1-methyl-ethyl]carbamate]	> 10	0.0001 to 1	> 10	0.0001 to 1		
COC(=O)N[C@@H](C)CNc1nccc(-c2nn(C(C)C)cc2-c2cc(Cl)cc(NS(=O)(=O)N(C)C)c2F)n1 [P-2166, methyl N-[(1S)-2-[[4-[4-[5-chloro-3-(dimethylsulfamoylamino)-2-fluoro-phenyl]-1-isopropyl-pyrazol-3-yl]pyrimidin-2-yl]amino]-1-methyl-ethyl]carbamate]		0.0001 to 1	> 10	0.0001 to 1	0.0001 to 1	

Now from value to compound:

EC50 (B9 (HRAS Q61L) cell line; numeric bounds) [µM]	IC50 [1] [µM]	EC50 ([2]; numeric bounds) [µM]	IC50 (BRAF V600E) [µM]	EC50 (B9 (HRAS Q61L) cell line; class symbols) [µM]	EC50 ([2]; class symbols) [µM]	SMILES
	0.0001 to 1		0.0001 to 1	0.0001 to 1	0.0001 to 1	COC(=O)N[C@@H](C)CNc1nccc(-c2nn(C(C)C)cc2-c2cc(Cl)cc(NS(=O)(=O)C3CCC3)c2F)n1 [P-2169, methyl N-[(1S)-2-[[4-[4-[5-chloro-3-(cyclobutylsulfonylamino)-2-fluoro-phenyl]-1-isopropyl-pyrazol-3-yl]pyrimidin-2-yl]amino]-1-methyl-ethyl]carbamate]
	0.0001 to 1		0.0001 to 1	0.0001 to 1	0.0001 to 1	COC(=O)N[C@@H](C)CNc1nccc(-c2nn(C(C)C)cc2-c2cc(Cl)cc(NS(=O)(=O)C3CC3)c2F)n1 [P-2170, methyl N-[(1S)-2-[[4-[4-[5-chloro-3-(cyclopropylsulfonylamino)-2-fluoro-phenyl]-1-isopropyl-pyrazol-3-yl]pyrimidin-2-yl]amino]-1-methyl-ethyl]carbamate]
> 10	0.0001 to 1	> 1	0.0001 to 1			O=C(c1cc(F)cc(NS(=O)(=O)N2CCCC2)c1F)c1c[nH]c2ncc(-c3cnc(C4CC4)nc3)cc12 [P-2171, N-[3-[5-(2-cyclopropylpyrimidin-5-yl)-1H-pyrrolo[2,3-b]pyridine-3-carbonyl]-2,5-difluoro-phenyl]pyrrolidine-1-sulfonamide]
> 1	0.0001 to 1	> 10	0.0001 to 1			O=C(c1cc(F)cc(NS(=O)(=O)N2CC[C@@H](F)C2)c1F)c1c[nH]c2ncc(-c3cnc(C4CC4)nc3)cc12 [P-2172, (3R)—N-[3-[5-(2-cyclopropylpyrimidin-5-yl)-1H-pyrrolo[2,3-b]pyridine-3-carbonyl]-2,5-difluoro-phenyl]-3-fluoro-pyrrolidine-1-sulfonamide]
> 10	0.0001 to 1	> 1	0.0001 to 1			CN(C)S(=O)(=O)Nc1cc(F)cc(C(=O)c2c[nH]c3ncc(-c4cnc(C5CC5)nc4)cc23)c1F [P-2173, 5-(2-cyclopropylpyrimidin-5-yl)-3-[3-(dimethylsulfamoylamino)-2,5-difluoro-benzoyl]-1H-pyrrolo[2,3-b]pyridine]
> 10	0.0001 to 1	> 10	0.0001 to 1			O=C(c1cc(Cl)cc(NS(=O)(=O)N2CC[C@@H](F)C2)c1F)c1c[nH]c2ncc(-c3cnc(C4CC4)nc3)cc12 [P-2174, (3R)—N-[5-chloro-3-[5-(2-cyclopropylpyrimidin-5-yl)-1H-pyrrolo[2,3-b]pyridine-3-carbonyl]-2-fluoro-phenyl]-3-fluoro-pyrrolidine-1-sulfonamide]
> 10	0.0001 to 1	> 10	0.0001 to 1			[2H]C1([2H])CCC([2H])([2H])N1S(=O)(=O)Nc1cc(Cl)cc(C(=O)c2c[nH]c3ncc(-c4cnc(C5CC5)nc4)cc23)c1F [P-2176, N-[5-chloro-3-[5-(2-cyclopropylpyrimidin-5-yl)-1H-pyrrolo[2,3-b]pyridine-3-carbonyl]-2-fluoro-phenyl]-2,2,5,5-tetradeuterio-pyrrolidine-1-sulfonamide]
> 10	0.0001 to 1	> 10	0.0001 to 1			[2H]C1([2H])N(S(=O)(=O)Nc2cc(Cl)cc(C(=O)c3c[nH]c4ncc(-c5cnc(C6CC6)nc5)cc34)c2F)C([2H])([2H])C([2H])([2H])C1([2H])[2H] [P-2177, N-[5-chloro-3-[5-(2-cyclopropylpyrimidin-5-yl)-1H-pyrrolo[2,3-b]pyridine-3-carbonyl]-2-fluoro-phenyl]-2,2,3,3,4,4,5,5-octadeuterio-pyrrolidine-1-sulfonamide]
> 10	1 to 10	> 10	0.0001 to 1			O=C(c1cc(C(F)(F)F)cc(NS(=O)(=O)N2CC[C@@H](F)C2)c1F)c1c[nH]c2ncc(-c3cnc(C4CC4)nc3)cc12 [P-2178, (3R)—N-[3-[5-(2-cyclopropylpyrimidin-5-yl)-1H-pyrrolo[2,3-b]pyridine-3-carbonyl]-2-fluoro-5-(trifluoromethyl)phenyl]-3-fluoro-pyrrolidine-1-sulfonamide]
> 10	> 10	> 10	1 to 10			O=C(c1cc(C(F)(F)F)cc(NS(=O)(=O)N2CCCC2)c1F)c1c[nH]c2ncc(-c3cnc(C4CC4)nc3)cc12 [P-2179, N-[3-[5-(2-cyclopropylpyrimidin-5-yl)-1H-pyrrolo[2,3-b]pyridine-3-carbonyl]-2-fluoro-5-(trifluoromethyl)phenyl]pyrrolidine-1-sulfonamide]
> 10	< 1	> 10	0.0001 to 1			O=C(c1cc(Cl)cc(NS(=O)(=O)N2CCCC2)c1F)c1c[nH]c2ncc(-c3cnc(C4CC4)nc3)cc12 [P-2180, N-(5-chloro-3-(5-(2-cyclopropylpyrimidin-5-yl)-1H-pyrrolo[2,3-b]pyridine-3-carbonyl)-2-fluorophenyl)pyrrolidine-1-sulfonamide]
> 10	0.0001 to 1		0.0001 to 1		0.0001 to 1	COC(=O)N[C@@H](C)CNc1nccc(-c2cn(C(C)C)nc2-c2cc(Cl)cc(NS(=O)(=O)N3CCCCC3)c2F)n1 [P-2181, methyl N-[(1S)-2-[[4-[3-[5-chloro-2-fluoro-3-(1-piperidylsulfonylamino)phenyl]-1-isopropyl-pyrazol-4-yl]pyrimidin-2-yl]amino]-1-methyl-ethyl]carbamate]
